Measurements as given in article PMC7743076 (bioRxiv, 2021).
Counter-ions that a name gives are not always drawn. Like-named read-outs stand apart in the source and are kept apart here.

How the values were obtained:
[1] = cited from earlier work; for pKa: ref published literature and PubChem
[2] = test system: SARS-2-PV bearing spike from ancestral strain Wuhan-1, entry into 293T-ACE2-TMPRSS2 cells; type: cell-based, SARS-CoV-2; conditions: for IC50: read-out: IC50, PV entry efficiency
[3] = test system: SARS-CoV-2 (Wuhan-1) infection in Vero E6 cells; experiment: Authentic SARS-CoV-2; type: cell-based; conditions: preliminary dose ranging
[4] = test system: SARS-CoV-2 (isolate USA-WA1/2020 or Wuhan-1); design: species or system Syrian hamsters (Mesocricetus auratus); conditions: hamster, in vivo
[5] = test system: authentic SARS-CoV-2 (Wuhan-1) in Vero E6-TMPRSS2 cells; type: cell-based
[6] = 120 mg/kg IP, mice; cited from earlier work
[7] = drug with two pKa values printed

CO[C@H]1O[C@H](CS)[C@H](O)[C@H](O)[C@H]1O [TDG, methyl 6-thio-6-deoxy-α-D-galactopyranoside]
reported pKa ([1]; TDG, thiol pKa, reported, reference not given): 9.6

NCCS [Cysteamine]
IC50 [2]: ~1000 µM | Virus-induced cytopathic effects (in words) [3]: very effective at decreasing virus-induced cytopathic effects | Alveolar hemorrhage scores [4]: significantly lower than in the control group | Histopathology scores for mixed cell lung inflammation [4]: significantly lower than in the control group | Lung weights (normalized to terminal body weights) [4]: significantly lower than in the control group | Lymphocytes in BAL [4]: decreases | Neutrophils in BAL [4]: decreases | Total cell counts in BAL [4]: lower than in control treated animals | Total protein in BAL [4]: lower | Viral N2 gene transcripts in lung tissue [4]: not significantly lower than in controls | Virus-induced cytopathic effects (in words) [5]: significantly decreased virus-induced cytopathic effects | pKa ([1]; thiol pKa): 8.2

Cl.NCCS [cysteamine hydrochloride]
Peak plasma concentration [6]: 0.6 mM | Time of peak plasma concentration after administration [6]: ≤ 5 min

N[C@@H](CSCC(=O)O)C(=O)O [Carbocysteine]
Inhibition of SARS-2-PV entry (in words) [2]: did not inhibit virus entry | Virus-induced cytopathic effects (in words) [5]: not effective

NCCCNCCSP(=O)(O)O [Amifostine]
Inhibition of SARS-2-PV entry (in words) [2]: did not inhibit virus entry

CC(C)(S)C(=O)N[C@@H](CS)C(=O)O [Bucillamine]
pKa [1, 7]: 10.2 | pKa ([1]; thiol pKa): 8.4

NCCCNCCS [WR-1065]
IC50 [2]: ~1000 µM | Virus-induced cytopathic effects (in words) [3]: very effective at decreasing virus-induced cytopathic effects

O=C(O)[C@@H](S)[C@@H](S)C(=O)O [Succimer, Dimercaptosuccinic acid]
pKa [1, 7]: 10.8 | pKa ([1]; thiol pKa): 8.9

O=S(=O)(O)CCS [Mesna, 2-mercaptoethane sulfonate, sodium salt]
pKa ([1]; thiol pKa): > 9
